Measured values published in patent publication US8962558B2, “Methods for reducing GnRH-positive tumor cell proliferation using the GnRH antagonist IN3” (priority 1997, dated 2015).
Read-outs that look alike come from different tables or passages of the source.

Experiments:
[1] = system: U-87MG cells; type: cell-based, human; settings: for inhibition versus controls: 7 days
Procedure: U-87MG cells were plated at a density of 1400 cells/cm^2 in […] in standard culture medium. Cells were allowed to attach and start growing for 3 days; the seeding media were then changed to experimental media. Cells were treated for 7 days with ZOLADEX® (10^−10-10^−6 M); medium was changed every two days. Following treatment, cells were collected and counted by hemocytometer. Data obtained from three independent experiments were analyzed according to the Dunnett's test after one-way ANOVA.

[2] = system: BLM melanoma cells; test: Cell proliferation studies, BLM cells; type: cell-based, human; settings: 10^−11-10^−6 M, daily for 7 days
Procedure: BLM cells were plated at a density of 700 cells/cm^2 in […] in culture medium. Cells were allowed to attach and start growing for 3 days; the seeding media were then changed. Cells were treated daily (the drug was added to the medium every day), for 7 days, with LHRH-A (10^−11-10^−6 M); the medium was changed at every two days. At the end of the treatment, cells were collected and counted by hemocytometer.
To confirm the specificity of the action of LHRH-A on melanoma cell proliferation, it was investigated whether the effects of the LHRH agonist might be counteracted by a potent GnRH antagonist. A preliminary experiment was performed to select the dose of the GnRH antagonist (ANT) to be used. To this purpose, BLM cells were treated daily with ANT at different doses (10^−11-10^−6 M).) Cells were harvested and counted after 7 days of treatment. Subsequently, BLM cells were treated daily, for 7 days, with LHRH-A (10^−7 M), either in the absence or in the presence of ANT (10^−7 M). Cells were counted 7 days after the beginning of the treatment.
All proliferation experiments were performed in four to six replicates. The data obtained from three independent experiments were analyzed according to the Dunnett's test after one-way ANOVA.

[3] = system: Glioblastoma multiforme; test: Phase II study with ZOLADEX (Example 7); type: in vivo, human
Procedure: Patients with histologically confirmed Glioblastoma multiforme following a first operation were treated (also randomized controlled) with ZOLADEX® in the manner described by Jonat et al., 1995, European J. Cancer, 137-142. Following radiotherapy, the patients are assigned to two different groups. One group received treatment, for example with ZOLADEX® and one group without ZOLADEX® (or with Cetrorelix® and without Cetrorelix®, or with ANTIDE® and without ANTIDE®, or with […]® or without […]® etc.). The resulting clinical effects are similar to metastasized […] mammary carcinoma. The percentage of patients showing an actual significant therapy effect is evaluated according to the criteria of tumor volume, recidivation-free survival, overall survival following initial application of the compound, and Karnofsky and Spitzer indices in a clinical neurological examination and under consideration of the other examination criteria (Sposto, R., et al., 1989, J. Neurooncology, 7, 165-177, and Kirby, S., et al., 1995, J. Natl. Cancer Institute, 87, 1884-1888, 1995).

[4] = system: human glioblastoma cell lines U-87MG or U-373MG, Kaposi sarcoma cell lines KSY-1 or KS-SLK, malignant melanoma cell line MV3 or BLM, medulloblastoma cell line …; test: Proliferation assay on cell cultures (Example 3); type: cell-based; settings: cell lines of Example 3 treated with the substance

CC(C)C[C@H](NC(=O)[C@@H](COC(C)(C)C)NC(=O)[C@H](Cc1ccc(O)cc1)NC(=O)[C@H](CO)NC(=O)[C@H](Cc1c[nH]c2ccccc12)NC(=O)[C@H](Cc1cnc[nH]1)NC(=O)[C@@H]1CCC(=O)N1)C(=O)N[C@@H](CCCNC(=N)N)C(=O)N1CCC[C@H]1C(=O)NNC(N)=O [ZOLADEX®, D-Ser(tBu)^6Aza-Gly-LHRH]
inhibition versus controls ([1]; 10^−6M): about 45%
inhibition versus controls ([1]; 10^−8M): about 23%
proliferation rate ([1]; significantly effective at 10^−8 to 10^−6 M): significant decrease of the proliferation rate
cell proliferation [2]: significant and dose-dependent inhibition of cell proliferation
reduction in tumor volume vs untreated control group ([3]; MRT and/or CAT scans): significantly higher reduction in tumor volume
overall survival following initial application vs untreated control group ([3]; in vivo): significantly longer overall survival
recidivation-free survival vs untreated control group ([3]; in vivo): significantly longer recidivation-free survival
anti-proliferative effects in tumor cells [4]: Significant anti-proliferative effects
